In ChEMBL document CHEMBL5442219:

What was measured:
Settings in all cases: Compound concentration 10 µM
[1] = target: Sodium-dependent dopamine transporter (Homo sapiens) (UniProt Q01959)
[2] = target: T1, D(4) dopamine receptor (Homo sapiens) (UniProt P21917)
T1 sequence (whole entry): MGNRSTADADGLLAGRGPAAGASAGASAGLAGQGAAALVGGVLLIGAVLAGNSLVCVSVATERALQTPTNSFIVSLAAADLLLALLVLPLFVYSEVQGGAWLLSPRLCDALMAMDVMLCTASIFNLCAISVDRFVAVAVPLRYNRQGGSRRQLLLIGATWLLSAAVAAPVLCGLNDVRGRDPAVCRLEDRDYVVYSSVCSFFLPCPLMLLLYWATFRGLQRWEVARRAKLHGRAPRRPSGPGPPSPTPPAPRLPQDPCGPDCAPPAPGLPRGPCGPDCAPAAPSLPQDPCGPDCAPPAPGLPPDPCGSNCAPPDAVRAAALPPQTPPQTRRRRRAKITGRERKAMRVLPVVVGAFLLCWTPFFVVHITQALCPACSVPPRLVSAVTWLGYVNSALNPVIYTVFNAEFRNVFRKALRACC

[3] = target: T2, Alpha-2B adrenergic receptor (Homo sapiens) (UniProt P18089)
T2 sequence (whole entry): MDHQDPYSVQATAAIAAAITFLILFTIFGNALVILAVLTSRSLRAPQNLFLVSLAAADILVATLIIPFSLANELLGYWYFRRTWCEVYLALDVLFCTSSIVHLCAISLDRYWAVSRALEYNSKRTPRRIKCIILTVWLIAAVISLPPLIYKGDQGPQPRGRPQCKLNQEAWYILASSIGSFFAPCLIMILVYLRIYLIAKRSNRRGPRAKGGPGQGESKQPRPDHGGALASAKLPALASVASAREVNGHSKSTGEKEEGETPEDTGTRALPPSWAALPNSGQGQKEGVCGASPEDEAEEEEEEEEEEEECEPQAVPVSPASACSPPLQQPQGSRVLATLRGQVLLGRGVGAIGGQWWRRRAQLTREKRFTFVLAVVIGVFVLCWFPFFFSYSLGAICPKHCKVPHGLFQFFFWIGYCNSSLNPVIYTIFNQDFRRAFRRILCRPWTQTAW

[4] = target: T3, 5-hydroxytryptamine receptor 2C (Homo sapiens) (UniProt P28335)
T3 sequence (whole entry): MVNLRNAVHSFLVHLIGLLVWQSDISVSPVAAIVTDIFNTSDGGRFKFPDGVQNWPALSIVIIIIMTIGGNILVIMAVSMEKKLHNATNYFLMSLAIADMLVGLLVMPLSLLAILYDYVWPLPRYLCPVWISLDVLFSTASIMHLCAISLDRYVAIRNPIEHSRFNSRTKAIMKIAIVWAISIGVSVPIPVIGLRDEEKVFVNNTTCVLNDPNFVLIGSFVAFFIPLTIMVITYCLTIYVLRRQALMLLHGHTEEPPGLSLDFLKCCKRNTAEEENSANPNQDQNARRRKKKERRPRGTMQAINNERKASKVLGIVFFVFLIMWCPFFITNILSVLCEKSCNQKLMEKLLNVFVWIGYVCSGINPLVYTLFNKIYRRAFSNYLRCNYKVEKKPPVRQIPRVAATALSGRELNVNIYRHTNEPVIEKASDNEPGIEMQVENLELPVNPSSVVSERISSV

[5] = target: D(2) dopamine receptor (Homo sapiens) (UniProt P14416)
[6] = target: Histamine H3 receptor (Homo sapiens) (UniProt Q9Y5N1)
[7] = target: Sigma non-opioid intracellular receptor 1 (Homo sapiens) (UniProt Q99720)
[8] = target: T4, Muscarinic acetylcholine receptor M4 (Homo sapiens) (UniProt P08173)
T4 sequence (whole entry): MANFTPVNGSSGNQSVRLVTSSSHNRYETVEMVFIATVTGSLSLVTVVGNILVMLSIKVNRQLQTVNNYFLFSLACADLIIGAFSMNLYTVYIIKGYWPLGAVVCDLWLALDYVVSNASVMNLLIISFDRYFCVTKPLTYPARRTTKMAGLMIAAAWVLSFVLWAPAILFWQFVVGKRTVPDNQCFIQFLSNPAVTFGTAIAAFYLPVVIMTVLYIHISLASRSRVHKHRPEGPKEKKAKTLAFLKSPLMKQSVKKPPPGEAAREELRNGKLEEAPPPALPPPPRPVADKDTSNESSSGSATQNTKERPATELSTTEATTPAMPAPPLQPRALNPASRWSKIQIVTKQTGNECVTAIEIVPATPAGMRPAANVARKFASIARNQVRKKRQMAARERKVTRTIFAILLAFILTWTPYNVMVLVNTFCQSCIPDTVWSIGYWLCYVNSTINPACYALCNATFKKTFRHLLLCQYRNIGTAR

[9] = target: Histamine H2 receptor (Homo sapiens) (UniProt P25021)
[10] = target: T5, Alpha-2C adrenergic receptor (Homo sapiens) (UniProt P18825)
T5 sequence (whole entry): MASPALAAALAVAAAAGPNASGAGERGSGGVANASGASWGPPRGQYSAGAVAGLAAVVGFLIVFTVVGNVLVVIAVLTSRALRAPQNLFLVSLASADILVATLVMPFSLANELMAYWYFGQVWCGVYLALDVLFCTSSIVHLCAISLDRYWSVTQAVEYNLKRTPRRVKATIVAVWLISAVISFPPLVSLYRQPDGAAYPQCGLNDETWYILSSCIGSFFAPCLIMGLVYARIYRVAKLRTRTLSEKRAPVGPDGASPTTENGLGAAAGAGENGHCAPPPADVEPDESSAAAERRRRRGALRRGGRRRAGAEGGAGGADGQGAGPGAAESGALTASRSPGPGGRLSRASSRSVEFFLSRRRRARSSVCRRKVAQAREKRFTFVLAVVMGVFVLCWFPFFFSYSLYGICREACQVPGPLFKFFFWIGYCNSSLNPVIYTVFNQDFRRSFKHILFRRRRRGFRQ

[11] = target: Histamine H4 receptor (Homo sapiens) (UniProt Q9H3N8)
[12] = target: Sodium-dependent noradrenaline transporter (Homo sapiens) (UniProt P23975)
[13] = target: 5-hydroxytryptamine receptor 1B (Homo sapiens) (UniProt P28222)
[14] = target: 5-hydroxytryptamine receptor 7 (Homo sapiens) (UniProt P34969)
[15] = target: Sodium-dependent serotonin transporter (Homo sapiens) (UniProt P31645)
Sodium-dependent serotonin transporter (Homo sapiens), sequence (P31645 whole entry, looked up): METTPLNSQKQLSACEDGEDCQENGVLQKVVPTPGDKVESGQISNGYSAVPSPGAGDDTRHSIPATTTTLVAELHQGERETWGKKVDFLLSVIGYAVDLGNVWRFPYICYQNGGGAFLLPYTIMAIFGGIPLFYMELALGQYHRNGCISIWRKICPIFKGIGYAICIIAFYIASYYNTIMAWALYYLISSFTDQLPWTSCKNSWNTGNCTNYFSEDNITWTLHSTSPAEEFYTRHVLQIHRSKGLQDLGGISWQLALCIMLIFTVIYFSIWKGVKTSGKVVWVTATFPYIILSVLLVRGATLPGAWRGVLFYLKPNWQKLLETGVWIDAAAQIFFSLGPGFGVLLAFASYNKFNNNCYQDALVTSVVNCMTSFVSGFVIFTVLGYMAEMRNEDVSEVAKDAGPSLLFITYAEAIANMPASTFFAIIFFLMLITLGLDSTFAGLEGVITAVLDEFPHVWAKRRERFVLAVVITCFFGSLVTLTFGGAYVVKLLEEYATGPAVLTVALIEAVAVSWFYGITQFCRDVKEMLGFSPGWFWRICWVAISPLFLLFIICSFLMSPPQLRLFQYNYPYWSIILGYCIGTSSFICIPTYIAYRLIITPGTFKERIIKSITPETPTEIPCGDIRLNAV

D(2) dopamine receptor (Homo sapiens), sequence (P14416 whole entry): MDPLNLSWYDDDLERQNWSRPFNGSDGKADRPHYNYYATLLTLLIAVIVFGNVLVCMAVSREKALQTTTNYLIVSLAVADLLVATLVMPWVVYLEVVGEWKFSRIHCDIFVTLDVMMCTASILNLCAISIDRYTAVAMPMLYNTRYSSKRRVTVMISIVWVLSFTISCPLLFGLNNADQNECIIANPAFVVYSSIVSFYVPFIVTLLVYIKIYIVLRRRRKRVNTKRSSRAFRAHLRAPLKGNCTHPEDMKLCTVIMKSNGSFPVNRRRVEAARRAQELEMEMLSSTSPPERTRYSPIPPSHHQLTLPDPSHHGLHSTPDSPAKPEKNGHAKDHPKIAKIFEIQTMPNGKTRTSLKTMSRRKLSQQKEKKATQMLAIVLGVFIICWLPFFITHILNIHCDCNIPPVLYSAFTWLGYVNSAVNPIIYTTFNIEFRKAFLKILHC
Histamine H3 receptor (Homo sapiens), sequence (Q9Y5N1 whole entry): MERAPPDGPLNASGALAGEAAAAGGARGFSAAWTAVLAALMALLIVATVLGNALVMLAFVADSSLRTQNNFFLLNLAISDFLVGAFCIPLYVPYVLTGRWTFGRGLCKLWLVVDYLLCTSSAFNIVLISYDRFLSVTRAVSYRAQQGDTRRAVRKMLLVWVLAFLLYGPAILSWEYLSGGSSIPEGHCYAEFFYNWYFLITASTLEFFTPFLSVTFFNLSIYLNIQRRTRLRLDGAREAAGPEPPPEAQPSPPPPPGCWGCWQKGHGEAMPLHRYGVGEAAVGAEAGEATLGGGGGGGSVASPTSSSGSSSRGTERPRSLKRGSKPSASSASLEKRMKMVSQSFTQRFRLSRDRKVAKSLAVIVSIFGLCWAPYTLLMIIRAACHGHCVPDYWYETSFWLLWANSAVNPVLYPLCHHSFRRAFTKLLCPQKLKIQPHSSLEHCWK
Histamine H4 receptor (Homo sapiens), sequence (Q9H3N8 whole entry): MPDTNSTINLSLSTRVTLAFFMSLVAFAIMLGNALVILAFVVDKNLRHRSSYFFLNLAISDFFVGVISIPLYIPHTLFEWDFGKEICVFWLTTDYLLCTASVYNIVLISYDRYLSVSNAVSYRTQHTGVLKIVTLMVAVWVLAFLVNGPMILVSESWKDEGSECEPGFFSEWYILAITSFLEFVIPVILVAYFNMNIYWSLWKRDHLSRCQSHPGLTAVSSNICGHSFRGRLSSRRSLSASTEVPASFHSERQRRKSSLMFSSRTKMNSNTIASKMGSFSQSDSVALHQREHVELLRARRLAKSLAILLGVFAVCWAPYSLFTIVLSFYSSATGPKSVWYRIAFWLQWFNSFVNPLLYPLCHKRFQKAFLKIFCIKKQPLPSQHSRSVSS
5-hydroxytryptamine receptor 7 (Homo sapiens), sequence (P34969 whole entry): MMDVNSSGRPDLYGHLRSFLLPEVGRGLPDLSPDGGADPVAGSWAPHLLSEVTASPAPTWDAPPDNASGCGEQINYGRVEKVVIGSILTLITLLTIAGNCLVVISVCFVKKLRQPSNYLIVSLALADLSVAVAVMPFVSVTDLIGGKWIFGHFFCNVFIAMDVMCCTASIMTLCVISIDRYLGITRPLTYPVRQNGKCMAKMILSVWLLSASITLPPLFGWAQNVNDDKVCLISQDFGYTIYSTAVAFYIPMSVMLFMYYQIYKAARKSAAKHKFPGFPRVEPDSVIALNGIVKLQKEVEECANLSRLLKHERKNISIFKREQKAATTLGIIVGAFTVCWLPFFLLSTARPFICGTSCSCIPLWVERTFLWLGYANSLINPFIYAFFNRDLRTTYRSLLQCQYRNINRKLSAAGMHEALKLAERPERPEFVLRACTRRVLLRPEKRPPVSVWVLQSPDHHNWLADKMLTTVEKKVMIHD
Sigma non-opioid intracellular receptor 1 (Homo sapiens), sequence (Q99720 whole entry): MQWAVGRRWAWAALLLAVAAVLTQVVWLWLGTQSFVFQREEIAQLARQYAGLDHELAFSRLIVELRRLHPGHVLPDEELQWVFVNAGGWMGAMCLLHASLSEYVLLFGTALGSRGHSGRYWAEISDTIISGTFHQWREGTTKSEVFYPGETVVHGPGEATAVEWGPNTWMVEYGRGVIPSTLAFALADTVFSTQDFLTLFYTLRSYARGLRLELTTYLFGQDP
Sodium-dependent dopamine transporter (Homo sapiens), sequence (Q01959 whole entry): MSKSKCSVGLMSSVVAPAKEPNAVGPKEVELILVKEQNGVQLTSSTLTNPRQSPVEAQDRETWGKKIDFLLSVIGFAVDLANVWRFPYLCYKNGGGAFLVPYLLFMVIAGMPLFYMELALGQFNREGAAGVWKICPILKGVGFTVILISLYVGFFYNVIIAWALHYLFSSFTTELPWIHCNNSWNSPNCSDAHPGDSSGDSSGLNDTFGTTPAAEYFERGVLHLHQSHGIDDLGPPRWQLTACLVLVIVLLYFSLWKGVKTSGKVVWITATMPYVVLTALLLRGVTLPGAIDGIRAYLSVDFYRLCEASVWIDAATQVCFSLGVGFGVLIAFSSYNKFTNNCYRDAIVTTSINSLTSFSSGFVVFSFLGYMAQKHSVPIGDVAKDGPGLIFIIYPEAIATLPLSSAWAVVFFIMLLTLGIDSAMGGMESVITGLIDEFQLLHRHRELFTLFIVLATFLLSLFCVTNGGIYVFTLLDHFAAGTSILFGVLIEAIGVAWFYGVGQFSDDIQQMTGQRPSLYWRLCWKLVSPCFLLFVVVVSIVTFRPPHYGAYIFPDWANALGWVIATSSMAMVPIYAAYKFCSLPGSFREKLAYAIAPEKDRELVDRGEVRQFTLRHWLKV
Histamine H2 receptor (Homo sapiens), sequence (P25021 whole entry): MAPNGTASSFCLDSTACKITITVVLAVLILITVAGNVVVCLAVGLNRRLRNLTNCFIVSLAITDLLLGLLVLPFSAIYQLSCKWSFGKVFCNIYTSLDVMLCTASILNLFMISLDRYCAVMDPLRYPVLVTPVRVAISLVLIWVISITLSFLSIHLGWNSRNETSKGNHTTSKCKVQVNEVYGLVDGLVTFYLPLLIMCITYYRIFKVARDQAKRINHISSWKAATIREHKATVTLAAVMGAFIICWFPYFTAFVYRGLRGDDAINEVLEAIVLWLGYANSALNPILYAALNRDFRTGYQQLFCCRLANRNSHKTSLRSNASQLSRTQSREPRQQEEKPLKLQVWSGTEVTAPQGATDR
5-hydroxytryptamine receptor 1B (Homo sapiens), sequence (P28222 whole entry): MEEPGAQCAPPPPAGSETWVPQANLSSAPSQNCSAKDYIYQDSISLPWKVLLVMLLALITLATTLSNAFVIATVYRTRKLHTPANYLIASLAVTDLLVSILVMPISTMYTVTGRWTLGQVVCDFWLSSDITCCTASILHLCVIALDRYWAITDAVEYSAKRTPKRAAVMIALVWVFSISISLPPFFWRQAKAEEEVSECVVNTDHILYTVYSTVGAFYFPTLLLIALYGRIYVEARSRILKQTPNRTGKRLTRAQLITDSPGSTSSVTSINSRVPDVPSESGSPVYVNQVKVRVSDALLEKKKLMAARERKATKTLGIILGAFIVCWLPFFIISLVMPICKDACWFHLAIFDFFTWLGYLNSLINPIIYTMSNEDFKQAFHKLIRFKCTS
Sodium-dependent noradrenaline transporter (Homo sapiens), sequence (P23975 whole entry): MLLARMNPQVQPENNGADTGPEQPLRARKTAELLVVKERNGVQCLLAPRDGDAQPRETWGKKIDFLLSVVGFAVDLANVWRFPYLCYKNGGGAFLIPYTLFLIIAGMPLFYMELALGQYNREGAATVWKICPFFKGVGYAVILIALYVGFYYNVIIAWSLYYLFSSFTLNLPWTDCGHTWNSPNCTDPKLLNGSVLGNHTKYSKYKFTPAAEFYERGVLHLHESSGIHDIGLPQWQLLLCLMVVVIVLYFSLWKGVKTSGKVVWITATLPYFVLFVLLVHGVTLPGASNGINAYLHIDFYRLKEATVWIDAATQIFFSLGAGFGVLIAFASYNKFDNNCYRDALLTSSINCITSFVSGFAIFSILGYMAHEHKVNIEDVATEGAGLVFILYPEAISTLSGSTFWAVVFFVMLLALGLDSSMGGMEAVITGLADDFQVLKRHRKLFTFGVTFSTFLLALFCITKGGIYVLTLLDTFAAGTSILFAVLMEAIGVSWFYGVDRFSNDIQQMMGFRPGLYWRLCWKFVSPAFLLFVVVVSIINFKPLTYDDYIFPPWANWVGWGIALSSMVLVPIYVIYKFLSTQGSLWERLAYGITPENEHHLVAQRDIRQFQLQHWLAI

Row | SMILES | inhibition [1] | inhibition [2] | inhibition [3] | inhibition [4] | inhibition [5] | inhibition [6] | inhibition [7] | inhibition [8] | inhibition [9] | inhibition [10] | inhibition [11] | inhibition [12] | inhibition [13] | inhibition [14] | inhibition [15]
1 | Cc1cc(NC(=O)Nc2ccc(N(C)C)cc2)c2cc(F)cc(F)c2n1 | 22.8% | 25.9% | 3.9% | 20.1% | 52.2% | 28.6% | 96% | 2.31% | 16.8% | 9.7% | 5.25% | 35.9% |  |  | 
2 | N#Cc1c(N)nc(SCC(N)=O)c(C#N)c1-c1ccc(OCC2CC2)cc1 | 3.03% | 8.04% | -9.96% |  |  | -3.51% | 62% | 34.5% | 41.5% |  | 14.3% |  |  |  | 
3 | Cc1c(OCc2cccc(-c3ccc(C(=O)O)cc3)c2)cc2c(c1C)C(=O)C(C1CCCC1)C2 (centres undefined) |  | 44% |  | 6.16% | -2.54% | 31.1% | -6.04% |  | 25.4% |  | 14.3% |  | 4.33% |  | 
4 | Cc1nc(C(=O)N2CCC[C@H]2Cc2nnc(-c3ccccc3)o2)c(-c2ccccc2F)s1 | 26.1% | -5.22% |  | 4.37% | 14.6% | 22.7% | 35.9% | 39.1% | -4.23% | -1.4% | -2.37% |  |  |  | 
5 | CCc1cc2c(c(CC)n1)CCC(=O)N2Cc1ccc(-c2ccccc2-c2nnn[nH]2)cc1 | 8.77% | 70% | 3.95% |  | 37.9% |  | 24.9% | -4.36% | 26.1% | 5.68% |  |  | 11.5% |  | 
6 | Cc1cc(C)cc(C(=O)N(C)[C@H](Cc2ccc(-c3ccccc3)cc2)C(=O)N[C@@H](Cc2c[nH]c3ccccc23)C(=O)O)c1 | 32.2% | 11.8% | 7.27% |  |  |  | -6.1% | 1% | 34.1% | 11.1% | -4.33% |  |  |  | 
7 | O=C(Nc1ccc(Cl)cc1)Nc1cccc(-c2cccc(N3CCCC3)n2)c1 | 18.3% | 5.64% | 5.47% |  | 8.25% |  | 47.3% | 18.8% | 20% | -1.24% | -1.99% |  |  |  | 
8 | O=C(O)CC/C=C\C[C@@H]1CO[C@H](c2ccccc2Cl)O[C@@H]1c1ccccc1O |  |  |  | -5.63% | 4.25% | 6.14% | -1.8% |  | 31.1% | -7.17% |  |  |  |  | 
9 | O=C(Cc1ccccc1)Nc1nc2ccc(Cl)cc2c2nc(-c3ccco3)nn12 | 27.1% | 33.2% | 4.67% | -5.69% | 1.93% |  | -4.19% | -5.46% | 13.8% | 9.95% | 6.75% | -6.09% |  |  | 
10 | CN1CC(=O)N=C1NC(=O)Nc1cccc(Cl)c1 | 0.92% | 27.2% | -6.21% | 5.25% | -2.54% | -4.69% | 3.26% | -2.92% |  | -3.83% | -9.18% | 9.52% | 31.2% | 0.17% | -8.91%
11 | O=C(Cc1ccc(Cl)c(Cl)c1)N1CCCC[C@H]1CN1CCCC1 | 52.7% | 79.7% | 34.8% | -3.64% | 44.5% | 37.3% | 94.7% | 16.7% |  | 24.5% | -9.98% | 23.7% | 10.4% | 31.1% | 33.9%
12 | CC(C)C[C@H](NC(=O)N1CCCCCC1)C(=O)N[C@H](Cc1cn(C)c2ccccc12)C(=O)N[C@H](Cc1ccccn1)C(=O)O | -1.54% |  |  |  | 2.53% |  | 4.12% | 0.19% | 18% | 0.48% |  |  | -2.58% |  | 
13 | COc1ccc(Br)cc1S(=O)(=O)NC(=O)/C=C/c1ccccc1Cc1ccc2ccccc2c1 |  | 33.8% | -4.1% | 26.2% | 29.3% | 5.89% | 11% | -8.83% | 16% | 18.6% | -5.64% | -0.94% | 3.55% |  | 
14 | CCc1cc(C(C)=O)c(O)cc1OCCCCCC(C)(C)c1nn[nH]n1 | 32.8% | 22.6% | 15.2% | 0.93% | 8.34% | 0.93% | 61.4% | -4.28% | 6.38% | 12% | 34.3% |  | 14.7% |  | 
15 | CCCCC#Cc1nc(NC)c2ncn([C@@H]3O[C@H](CO)[C@@H](O)[C@H]3O)c2n1 |  | -8.18% |  | 17.8% | -5.45% | 7.95% | -7.49% | 0.76% | 16% | -4.88% | -7.18% |  | -7.26% |  | 
16 | Cc1ccccc1C(=O)Nc1ccc(C(=O)N2CCCC(O)c3cc(Cl)ccc32)c(C)c1 (centres undefined) | 21.9% | 20% | 17.5% | 78.3% | 9.21% | 6.39% | 28.2% | -6.02% |  | 9.34% | 3.66% | 20.8% | 14.4% | 8.44% | 10.7%
